ChEMBL document CHEMBL5528066, “Discovery of Novel N-(Anthracen-9-ylmethyl) Benzamide Derivatives as ZNF207 Inhibitors Promising in Treating Glioma” (J Med Chem, 2024)
Activity calls are given as the source filed them. The rule behind the calls is not given here.

How the values were obtained:
H4 [1] = assay: Inhibition of sphere formation in human H4 cells at 8 uM measured after 10 days in well containing 10000 cells by microscopic analysis; type: functional, cell-based; settings: time 10.0 day
H4 [2] = assay: Inhibition of sphere formation in human H4 cells at 1 uM measured after 10 days in well containing 1 cells by microscopic analysis; type: functional, cell-based; settings: time 10.0 day
H4 [3] = assay: Inhibition of sphere formation in human H4 cells assessed as fold reduction in sphere initiating frequency at 2 uM incubated for 10 days by microscopic analysis relative to control; type: functional; settings: time 10 day
Hs 683 [4] = assay: Inhibition of colony formation in human Hs 683 cells assessed as reduction in colony area at 5 uM treated on day 1 and measured after 14 days by crystal violet staining based microscopic analysis relative to control; type: functional; settings: Hs 683, 336 h, time 14 day
LN-229 [5] = assay: Inhibition of colony formation in human LN-229 cells assessed as reduction in number of cell clones treated on day 1 and measured after 14 days by crystal violet staining based microscopic analysis; type: functional; settings: dose 0.625-5 µM, time 14.0 day
[6] = Toxicity in female C57BL/6 mouse assessed as change in cellular structure of liver at 45 mg/kg, po administered once a day for 2 weeks by H and E staining based analysis; type: organism-based; settings: in vivo, 336 h
Hs 683 [7] = assay: Inhibition of sphere formation in human Hs 683 cells assessed as fold reduction in sphere initiating frequency at 2 uM incubated for 10 days by microscopic analysis relative to control; type: functional; settings: time 10 day
[8] = Drug concentration in female Sprague-Dawley rat stomach at 45 mg/kg, po measured after 8 hrs by LC-MS/MS analysis; type: ADME, organism-based; settings: read-out: Ct
[9] = Drug concentration in female Sprague-Dawley rat intestine at 45 mg/kg, po measured after 8 hrs by LC-MS/MS analysis; type: ADME, organism-based; settings: read-out: Ct
Hs 683 [10] = assay: Inhibition of sphere formation in human Hs 683 cells at 8 uM measured after 10 days in well containing 1 cells by microscopic analysis; type: functional, cell-based; settings: time 10.0 day
Hs 683 [11] = assay: Antiproliferative activity against human Hs 683 cells assessed as inhibition of cell growth measured after 72 hrs by CCK-8 assay; type: functional, cell-based; settings: Hs 683, 72 h
H4 [12] = assay: Inhibition of sphere formation in human H4 cells at 1 uM measured after 10 days in well containing 10000 cells by microscopic analysis; type: functional, cell-based; settings: time 10.0 day
[13] = Toxicity in male C57BL/6 mouse assessed as change in cellular structure of thymus at 45 mg/kg, po administered once a day for 2 weeks by H and E staining based analysis; type: organism-based; settings: in vivo, 336 h
Hs 683 [14] = assay: Induction of apoptosis in human Hs 683 cells assessed as apoptotic cells at 2.5 uM incubated for 24 hrs by Annexin V-FITC/PI staining based flow cytometry analysis relative to control; type: functional
H4 [15] = assay: Inhibition of sphere formation in human H4 cells at 8 uM measured after 10 days in well containing 10 cells by microscopic analysis; type: functional, cell-based; settings: time 10.0 day
LN-229 [16] = assay: Antitumor activity against human LN-229 cells xenografted in BALB/c nude mouse assessed as tumor growth inhibition at 15 to 45 mg/kg, po administered once a day and measured every 2 days for 49 days relative to control; type: functional; settings: dose 15-45 mg/kg, time 49 day
[17] = Toxicity in female C57BL/6 mouse assessed as change in cellular structure of spleen at 45 mg/kg, po administered once a day for 2 weeks by H and E staining based analysis; type: organism-based; settings: in vivo, 336 h
[18] = Toxicity in female C57BL/6 mouse assessed as change in cellular structure of thymus at 45 mg/kg, po administered once a day for 2 weeks by H and E staining based analysis; type: organism-based; settings: in vivo, 336 h
U-251 [19] = assay: Inhibition of sphere formation in human U-251MG cells at 8 uM measured after 10 days in well containing 1 cells by microscopic analysis; type: functional, cell-based; settings: time 10.0 day
LN-229 [20] = assay: Inhibition of sphere formation in human LN-229 cells assessed as fold reduction in sphere initiating frequency at 1 uM incubated for 10 days by microscopic analysis relative to control; type: functional; settings: time 10 day
H4 [21] = assay: Antiproliferative activity against human H4 cells assessed as inhibition of cell growth measured after 72 hrs by CCK-8 assay; type: functional, cell-based; settings: H4, 72 h
Hs 683 [22] = assay: Inhibition of sphere formation in human Hs 683 cells at 2 uM measured after 10 days in well containing 10000 cells by microscopic analysis; type: functional, cell-based; settings: time 10.0 day
LN-229-Luc = assay: Antitumor activity against human Ln-229-Luc cells xenografted in BALB/c nude mouse assessed as reduction in tumor load at 45 mg/kg, po administered once a day and measured on day 25 by bioluminescence imaging analysis relative to control; type: functional; settings: time 25 day
U-251 [23] = assay: Inhibition of sphere formation in human U-251MG cells assessed as fold reduction in sphere initiating frequency at 1 uM incubated for 10 days by microscopic analysis relative to control; type: functional; settings: time 10 day
H4 [24] = assay: Inhibition of sphere formation in human H4 cells assessed as fold reduction in sphere initiating frequency at 4 uM incubated for 10 days by microscopic analysis relative to control; type: functional; settings: time 10 day
[25] = Drug concentration in female Sprague-Dawley rat kidney at 45 mg/kg, po measured after 8 hrs by LC-MS/MS analysis; type: ADME, organism-based; settings: read-out: Ct
[26] = Drug concentration in female Sprague-Dawley rat heart at 45 mg/kg, po measured after 8 hrs by LC-MS/MS analysis; type: ADME, organism-based; settings: read-out: Ct
LN-229 [27] = assay: Inhibition of sphere formation in human LN-229 cells at 8 uM measured after 10 days in well containing 10 cells by microscopic analysis; type: functional, cell-based; settings: time 10.0 day
[28] = Drug concentration in male Sprague-Dawley rat kidney at 45 mg/kg, po measured after 8 hrs by LC-MS/MS analysis; type: ADME, organism-based; settings: read-out: Ct
LN-229 [29] = assay: Inhibition of sphere formation in human LN-229 cells at 2 uM measured after 10 days in well containing 1 cells by microscopic analysis; type: functional, cell-based; settings: time 10.0 day
[30] = Toxicity in female C57BL/6 mouse assessed as change in cellular structure of lung at 45 mg/kg, po administered once a day for 2 weeks by H and E staining based analysis; type: organism-based; settings: in vivo, 336 h
[31] = Toxicity in male C57BL/6 mouse assessed as change in cellular structure of spleen at 45 mg/kg, po administered once a day for 2 weeks by H and E staining based analysis; type: organism-based; settings: in vivo, 336 h
HeLa = assay: Antiproliferative activity against human HeLa cells assessed as inhibition of cell growth incubated for 72 hrs by CCK-8 assay; type: functional, cell-based
LN-229 [32] = assay: Antitumor activity against human LN-229 cells xenografted in BALB/c nude mouse assessed as tumor growth delay by measuring tumor volume at 45 mg/kg, po administered once a day and measured every 2 days for 49 days (reference value: 700 […]); type: functional; settings: time 49 day
MDR1 = assay: Apparent permeability across basolateral to apical side in MDCKII-MDR1 cells assessed as drug recovery at 1 uM incubated for 2 hrs by LC-MS/MS analysis; type: ADME, cell-based, Canis lupus familiaris; settings: dog, MDCK-MDR1, read-out: Drug recovery
U-251 [33] = assay: Inhibition of sphere formation in human U-251MG cells at 4 uM measured after 10 days in well containing 10 cells by microscopic analysis; type: functional, cell-based; settings: time 10.0 day
H4 [34] = assay: Inhibition of sphere formation in human H4 cells at 8 uM measured after 10 days in well containing 1 cells by microscopic analysis; type: functional, cell-based; settings: time 10.0 day
LN-229 [35] = assay: Inhibition of sphere formation in human LN-229 cells at 1 uM measured after 10 days in well containing 1 cells by microscopic analysis; type: functional, cell-based; settings: time 10.0 day

N#CC1(C(=O)NCCC2CCN(Cc3ccccc3)CC2)CC2(Br)c3ccccc3C1c1ccccc12 (racemic)
inhibition (H4 [1]): inactive
inhibition (H4 [2]): Active
fold change (FC) (H4 [3]): 25.31
inhibition at 5 µM (Hs 683 [4]): 100%
inhibition (LN-229 [5]): Dose-Dependent Effect
Activity [6]: Non-Toxic
fold change (FC) (Hs 683 [7]): 15.75
concentration at 8 h [8]: 4370 ng/g
concentration at 8 h [9]: 442 ng/g
inhibition (Hs 683 [10]): Active
IC50 (Hs 683 [11]): 8.53 µM
inhibition (H4 [12]): inactive
Activity [13]: Non-Toxic
Activity (Hs 683 [14]): ~20%
inhibition (H4 [15]): Active
TGI (LN-229 [16]): ~55%
Activity [17]: Non-Toxic
Activity [18]: Non-Toxic
inhibition (U-251 [19]): Active
fold change (FC) (LN-229 [20]): 4.37
IC50 (H4 [21]): 0.72 µM
inhibition (Hs 683 [22]): inactive
fold change (FC) (LN-229-Luc): 7.6
fold change (FC) (U-251 [23]): 2.78
fold change (FC) (H4 [24]): 32.7
concentration at 8 h [25]: 816 ng/g
concentration at 8 h [26]: 783 ng/g
inhibition (LN-229 [27]): Active
concentration at 8 h [28]: 85.1 ng/g
inhibition (LN-229 [29]): Active
Activity [30]: Non-Toxic
Activity [31]: Non-Toxic
IC50 (HeLa): 8.13 µM
Activity (LN-229 [32]): 200 mm3
recovery at 2 h, 1 µM (MDR1): 101%
inhibition (U-251 [33]): Active
inhibition (H4 [34]): Active
inhibition (LN-229 [35]): Active
